9 compounds from BindingDB's records for doi:10.1016/j.bmc.2019.115207 (Tokyo Institute of Innovative Research, 2020) can be followed below.

Sequence of Hypoxia-inducible factor 1-alpha (Q16665 whole entry): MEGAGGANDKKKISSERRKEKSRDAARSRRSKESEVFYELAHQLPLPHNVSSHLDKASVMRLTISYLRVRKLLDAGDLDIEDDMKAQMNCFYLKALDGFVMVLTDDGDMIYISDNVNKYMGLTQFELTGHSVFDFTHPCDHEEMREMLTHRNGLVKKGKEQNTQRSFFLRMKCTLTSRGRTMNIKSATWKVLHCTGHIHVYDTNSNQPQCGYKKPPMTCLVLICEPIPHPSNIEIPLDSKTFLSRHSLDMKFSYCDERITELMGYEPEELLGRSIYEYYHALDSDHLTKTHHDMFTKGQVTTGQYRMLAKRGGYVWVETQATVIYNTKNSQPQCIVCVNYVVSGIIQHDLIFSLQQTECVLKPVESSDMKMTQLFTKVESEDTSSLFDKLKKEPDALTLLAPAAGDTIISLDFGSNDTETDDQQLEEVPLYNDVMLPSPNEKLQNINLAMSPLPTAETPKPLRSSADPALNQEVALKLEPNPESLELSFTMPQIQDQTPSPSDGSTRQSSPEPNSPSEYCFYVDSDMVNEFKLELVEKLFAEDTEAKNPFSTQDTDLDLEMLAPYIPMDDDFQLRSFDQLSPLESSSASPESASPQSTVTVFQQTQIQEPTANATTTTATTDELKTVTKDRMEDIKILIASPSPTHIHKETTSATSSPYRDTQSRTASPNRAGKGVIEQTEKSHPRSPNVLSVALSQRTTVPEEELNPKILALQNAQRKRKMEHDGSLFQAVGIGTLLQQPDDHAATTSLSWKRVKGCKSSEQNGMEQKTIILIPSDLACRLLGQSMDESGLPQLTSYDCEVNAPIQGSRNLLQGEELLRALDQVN

This experiment addresses Hypoxia-inducible factor 1-alpha (Homo sapiens, UniProt Q16665). The experiment can be described thus: Inhibition of HIF1alpha transcriptional activity in human HeLa cells transfected with HRE-firefly luciferase and cytomegalovirus-promoter expressing Renilla luciferase incubated for 12 hrs under 1% O2 condition by dual luciferase reporter gene assay. In general terms: In a reporter assay the amount or activity of a reporter protein is the signal.
For `Cc1ccc(-n2ncc3c2C(=O)c2ccccc2-3)cc1`, the IC50 was determined as 0.79 µM.
With `Cc1nn(-c2ccccc2)c2c1-c1ccccc1C2=O` the figure was 4.8 µM; with `O=C1c2ccccc2-c2cnn(-c3ccccc3)c21`, 1.4 µM; with `O=C1c2ccccc2-c2cn[nH]c21`, more than 30 µM.
Then `O=C1c2ccccc2-c2cnn(-c3ccc(O)cc3)c21`, with 0.39 µM; and `COc1ccc(-n2ncc3c2C(=O)c2ccccc2-3)cc1`, with 0.61 µM; and `Cn1ncc2c1C(=O)c1ccccc1-2`, with 8.8 µM.
For the compound `O=C1c2ncccc2-c2cnn(-c3ccccc3)c21`, the half-inhibitory concentration (IC50) came out at 10 µM.
As for `O=C1c2ccccc2-c2cnn(-c3ccc(C(F)(F)F)cc3)c21`, the concentration for half-maximal inhibition (IC50) stood at 23 µM.

A word on the IC50: it is the midpoint of a concentration-inhibition curve. A higher IC50 goes with lower potency.
